According to patent US20240025862A1, “SUBSTITUTED N-PHENYLURACILS AND SALTS THEREOF, AND USE THEREOF AS HERBICIDAL ACTIVE SUBSTANCES” (Bayer Aktiengesellschaft, priority 2020, published 2024):

Experiments:
Assay type in all cases: in vivo
Zea mays (ZEAMX) = test: Post-emergence crop plant compatibility, greenhouse pot test; details: 1.25 g/ha, vs untreated controls
Method in brief: (§1)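 Compatibility was scored as visual % effect against untreated controls about 3 weeks after spraying green plant parts at the one-leaf stage. Formulations (WP/EC) were applied in aqueous form with 0.5% additive, 600 l/ha, to greenhouse-grown pot plants.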

[1] = test system: Triticum aestivum (TRZAS); test: as above; details: vs untreated controls
Method in brief: as §1

Oryza sativa (ORYSA) = test: Post-emergence crop plant compatibility, greenhouse pot test (also comparative test C); details: vs untreated controls
Method in brief: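 Visual damage versus untreated plants (0% = like control, 100% = plants died) was scored about 3 weeks after a post-emergence spray in greenhouse pots. Treatment: one-leaf stage, WP or EC in water at 600 l/ha with 0.5% additive; a/b/c mark different dosages on the same crop.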

[2] = test system: Echinochloa crus-galli (ECHCG); test: Post-emergence herbicidal action, greenhouse pot test (also comparative test C)
Method in brief: (§2)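 Green parts of one-leaf-stage plants are sprayed at 600 l/ha with formulated compound plus 0.5% additive, then kept under optimum greenhouse conditions for about 3 weeks. Damage is scored visually, where 100% means dead plants and 0% means no difference from controls.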

Setaria viridis (SETVI) = test: as above
Method in brief: as §2

[3] = test system: Alopecurus myosuroides (ALOMY); test: as above; details: rated visually after about 3 weeks vs untreated controls, 100% = plants have died
Method in brief: as §2

[4] = test system: Matricaria inodora (MATIN); test: as above
Method in brief: as §2

Avena fatua (AVEFA) = test: Post-emergence herbicidal action, greenhouse pot test; details: rated visually after about 3 weeks vs untreated controls, 100% = plants have died
Method in brief: (§3)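 Activity was scored by eye about 3 weeks after treatment against untreated plants, where 100% means dead plants and 0% means no difference. Plants at the one-leaf stage received a foliar spray of WP or EC formulations in water plus 0.5% additive (600 l/ha, up to 20 g/ha). Plants were grown in sandy loam pots in a greenhouse for 2–3 weeks before spraying.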

Viola tricolor (VIOTR) = test: as above
Method in brief: as §3

Veronica persica (VERPE) = test: as above
Method in brief: as §3

[5] = test system: Pharbitis purpurea (PHBPU); test: as above
Method in brief: as §3

[6] = test system: Amaranthus retroflexus (AMARE); test: as above; details: rated visually after about 3 weeks vs untreated controls, 100% = plants have died
Method in brief: as §3

[7] = test system: Polygonum convolvulus (POLCO); test: as above
Method in brief: as §3

[8] = test system: Abutilon theophrasti (ABUTH); test: as above; details: rated visually after about 3 weeks vs untreated controls, 100% = plants have died
Method in brief: as §3

Cn1c(C(F)(F)F)cc(=O)n(-c2cc(Oc3ccccc3OCC(=O)OCCOC(F)(F)F)c(C#N)cc2F)c1=O [I.9-41]
Post-emergence action against ZEAMX (crop plant compatibility) (Zea mays (ZEAMX)): 10%
Post-emergence action against TRZAS (crop plant compatibility) ([1]; 1.25 g/ha): 0%
Post-emergence action against TRZAS (crop plant compatibility) ([1]; 5 g/ha): 10%
Post-emergence action against TRZAS (crop plant compatibility) ([1]; 20 g/ha): 20%
Post-emergence action against ORYSA (crop plant compatibility) (Oryza sativa (ORYSA); 1.25 g/ha): 0%
Post-emergence action against ORYSA (crop plant compatibility) (Oryza sativa (ORYSA); 5 g/ha): 0%
Post-emergence action against ECHCG in % ([2]; dosage 5 g/ha): 80%
Post-emergence action against ECHCG in % ([2]; dosage 20 g/ha): 100%
Post-emergence action against SETVI (Setaria viridis (SETVI); 20 g/ha): 100%
Post-emergence action against SETVI in % (Setaria viridis (SETVI); dosage 1.25 g/ha): 100%
Post-emergence action against SETVI in % (Setaria viridis (SETVI); dosage 5 g/ha): 100%
Post-emergence action at 20 g/ha against ALOMY in % ([3]; 20 g/ha): 80%
Post-emergence action against MATIN in % ([4]; dosage 1.25 g/ha): 100%
Post-emergence action against MATIN in % ([4]; dosage 5 g/ha): 100%
Post-emergence action against MATIN in % ([4]; dosage 20 g/ha): 100%
Post-emergence action at 20 g/ha against AVEFA in % (Avena fatua (AVEFA); 20 g/ha): 80%
Post-emergence action against VIOTR (Viola tricolor (VIOTR); 1.25 g/ha): 90%
Post-emergence action against VIOTR (Viola tricolor (VIOTR); 5 g/ha): 100%
Post-emergence action against VIOTR (Viola tricolor (VIOTR); 20 g/ha): 100%
Post-emergence action against VERPE (Veronica persica (VERPE); 5 g/ha): 100%
Post-emergence action against VERPE (Veronica persica (VERPE); 20 g/ha): 100%
Post-emergence action against PHBPU in % ([5]; dosage 1.25 g/ha): 100%
Post-emergence action against PHBPU in % ([5]; dosage 5 g/ha): 100%
Post-emergence action against PHBPU in % ([5]; dosage 20 g/ha): 100%
Post-emergence action at 1.25 g/ha against AMARE in % ([6]; 1.25 g/ha): 100%
Post-emergence action at 5 g/ha against AMARE in % ([6]; 5 g/ha): 100%
Post-emergence action at 20 g/ha against AMARE in % ([6]; 20 g/ha): 100%
Post-emergence action against POLCO in % ([7]; dosage 5 g/ha): 90%
Post-emergence action against POLCO in % ([7]; dosage 20 g/ha): 100%
Post-emergence action at 1.25 g/ha against ABUTH in % ([8]; 1.25 g/ha): 100%
Post-emergence action at 5 g/ha against ABUTH in % ([8]; 5 g/ha): 100%
Post-emergence action at 20 g/ha against ABUTH in % ([8]; 20 g/ha): 100%

Cn1c(C(F)(F)F)cc(=O)n(-c2cc(Oc3ccccc3OCC(=O)OCC#N)c(C#N)cc2F)c1=O [I.9-176, Cyanomethyl (2-{2-cyano-4-fluoro-5-[3-methyl-2,6-dioxo-4-(trifluoromethyl)-3,6-dihydropyrimidin-1(2H)-yl]phenoxy}phenoxy)acetate]
Post-emergence action against ZEAMX (crop plant compatibility) (Zea mays (ZEAMX)): 0%
Post-emergence action against TRZAS (crop plant compatibility) ([1]; 1.25 g/ha): 0%
Post-emergence action against TRZAS (crop plant compatibility) ([1]; 5 g/ha): 20%
Post-emergence action against ORYSA (crop plant compatibility) (Oryza sativa (ORYSA); 1.25 g/ha): 0%
Post-emergence action against ORYSA (crop plant compatibility) (Oryza sativa (ORYSA); 5 g/ha): 20%
Post-emergence action at 1.25 g/ha against ECHCG in % ([2]; 1.25 g/ha, rated visually after about 3 weeks vs untreated controls, 100% = plants have died): 100%
pest or weed control at 5 g/ha ([2]; Echinochloa crus-galli, 504 h, dosage 5 g/ha, read-out: Post-emergence action against ECHCG in %): 100%
pest or weed control at 20 g/ha ([2]; Echinochloa crus-galli, 504 h, dosage 20 g/ha, read-out: Post-emergence action against ECHCG in %): 100%
pest or weed control at 20 g/ha (Setaria viridis (SETVI); Setaria viridis, 504 h, 20 g/ha, read-out: Post-emergence action against SETVI): 100%
pest or weed control at 1.25 g/ha (Setaria viridis (SETVI); Setaria viridis, 504 h, dosage 1.25 g/ha, read-out: Post-emergence action against SETVI in %): 100%
pest or weed control at 5 g/ha (Setaria viridis (SETVI); Setaria viridis, 504 h, dosage 5 g/ha, read-out: Post-emergence action against SETVI in %): 100%
pest or weed control at 5 g/ha ([3]; Alopecurus myosuroides, 504 h, 5 g/ha, read-out: Post-emergence action at 5 g/ha against ALOMY in %): 100%
pest or weed control at 20 g/ha ([3]; Alopecurus myosuroides, 504 h, 20 g/ha, read-out: Post-emergence action at 20 g/ha against ALOMY in %): 100%
pest or weed control at 5 g/ha ([4]; Tripleurospermum inodorum, 504 h, dosage 5 g/ha, read-out: Post-emergence action against MATIN in %): 100%
pest or weed control at 20 g/ha ([4]; Tripleurospermum inodorum, 504 h, dosage 20 g/ha, read-out: Post-emergence action against MATIN in %): 100%
Post-emergence action at 5 g/ha against AVEFA in % (Avena fatua (AVEFA); 5 g/ha): 80%
pest or weed control at 20 g/ha (Avena fatua (AVEFA); Avena fatua, 504 h, 20 g/ha, read-out: Post-emergence action at 20 g/ha against AVEFA in %): 80%
pest or weed control at 1.25 g/ha (Viola tricolor (VIOTR); Viola tricolor, 504 h, 1.25 g/ha, read-out: Post-emergence action against VIOTR): 100%
pest or weed control at 5 g/ha (Viola tricolor (VIOTR); Viola tricolor, 504 h, 5 g/ha, read-out: Post-emergence action against VIOTR): 100%
pest or weed control at 20 g/ha (Viola tricolor (VIOTR); Viola tricolor, 504 h, 20 g/ha, read-out: Post-emergence action against VIOTR): 100%
pest or weed control at 1.25 g/ha (Veronica persica (VERPE); Veronica persica, 504 h, 1.25 g/ha, read-out: Post-emergence action against VERPE): 100%
pest or weed control at 5 g/ha (Veronica persica (VERPE); Veronica persica, 504 h, 5 g/ha, read-out: Post-emergence action against VERPE): 100%
pest or weed control at 20 g/ha (Veronica persica (VERPE); Veronica persica, 504 h, 20 g/ha, read-out: Post-emergence action against VERPE): 100%
pest or weed control at 5 g/ha ([5]; Ipomoea purpurea, 504 h, dosage 5 g/ha, read-out: Post-emergence action against PHBPU in %): 100%
pest or weed control at 20 g/ha ([5]; Ipomoea purpurea, 504 h, dosage 20 g/ha, read-out: Post-emergence action against PHBPU in %): 100%
pest or weed control at 1.25 g/ha ([6]; Amaranthus retroflexus, 504 h, 1.25 g/ha, read-out: Post-emergence action at 1.25 g/ha against AMARE in %): 100%
pest or weed control at 5 g/ha ([6]; Amaranthus retroflexus, 504 h, 5 g/ha, read-out: Post-emergence action at 5 g/ha against AMARE in %): 100%
pest or weed control at 20 g/ha ([6]; Amaranthus retroflexus, 504 h, 20 g/ha, read-out: Post-emergence action at 20 g/ha against AMARE in %): 100%
pest or weed control at 20 g/ha ([7]; Fallopia convolvulus, 504 h, dosage 20 g/ha, read-out: Post-emergence action against POLCO in %): 100%
pest or weed control at 1.25 g/ha ([8]; Abutilon theophrasti, 504 h, 1.25 g/ha, read-out: Post-emergence action at 1.25 g/ha against ABUTH in %): 100%
pest or weed control at 5 g/ha ([8]; Abutilon theophrasti, 504 h, 5 g/ha, read-out: Post-emergence action at 5 g/ha against ABUTH in %): 100%
pest or weed control at 20 g/ha ([8]; Abutilon theophrasti, 504 h, 20 g/ha, read-out: Post-emergence action at 20 g/ha against ABUTH in %): 100%
